Measurements published in US20070037752A1, “Novel alanyl-amino peptidase inhibitors for functionally influencing different cells and treating immunological, inflammatory, neuronal, and other diseases” (priority 2003, published 2007).
pIC50: −log10 of the molar value. Residues, ends and D or L forms follow the SMILES beside them. *: point of attachment. OBn = c1ccc(CO*)cc1

Target: alanyl aminopeptidases (APN) (Homo sapiens, UniProt P15144)
Assay: Inhibition of alanyl aminopeptidase enzymatic activity, fluorogenic substrate (Ala)2-rhodamine 110
Format: biochemical
Conditions: Table 1, unstarred values; read-out: IC50APN
Description: The inhibition characteristics measured are referred to as IC-50 values or ID50 values (the latter marked with “*”) for said enzyme. The enzymatic activity was determined by means of the fluorogenic substrate/product (Ala)2-rhodamine 110.

Chain of alanyl aminopeptidases (APN) (P15144 whole entry, species assumed): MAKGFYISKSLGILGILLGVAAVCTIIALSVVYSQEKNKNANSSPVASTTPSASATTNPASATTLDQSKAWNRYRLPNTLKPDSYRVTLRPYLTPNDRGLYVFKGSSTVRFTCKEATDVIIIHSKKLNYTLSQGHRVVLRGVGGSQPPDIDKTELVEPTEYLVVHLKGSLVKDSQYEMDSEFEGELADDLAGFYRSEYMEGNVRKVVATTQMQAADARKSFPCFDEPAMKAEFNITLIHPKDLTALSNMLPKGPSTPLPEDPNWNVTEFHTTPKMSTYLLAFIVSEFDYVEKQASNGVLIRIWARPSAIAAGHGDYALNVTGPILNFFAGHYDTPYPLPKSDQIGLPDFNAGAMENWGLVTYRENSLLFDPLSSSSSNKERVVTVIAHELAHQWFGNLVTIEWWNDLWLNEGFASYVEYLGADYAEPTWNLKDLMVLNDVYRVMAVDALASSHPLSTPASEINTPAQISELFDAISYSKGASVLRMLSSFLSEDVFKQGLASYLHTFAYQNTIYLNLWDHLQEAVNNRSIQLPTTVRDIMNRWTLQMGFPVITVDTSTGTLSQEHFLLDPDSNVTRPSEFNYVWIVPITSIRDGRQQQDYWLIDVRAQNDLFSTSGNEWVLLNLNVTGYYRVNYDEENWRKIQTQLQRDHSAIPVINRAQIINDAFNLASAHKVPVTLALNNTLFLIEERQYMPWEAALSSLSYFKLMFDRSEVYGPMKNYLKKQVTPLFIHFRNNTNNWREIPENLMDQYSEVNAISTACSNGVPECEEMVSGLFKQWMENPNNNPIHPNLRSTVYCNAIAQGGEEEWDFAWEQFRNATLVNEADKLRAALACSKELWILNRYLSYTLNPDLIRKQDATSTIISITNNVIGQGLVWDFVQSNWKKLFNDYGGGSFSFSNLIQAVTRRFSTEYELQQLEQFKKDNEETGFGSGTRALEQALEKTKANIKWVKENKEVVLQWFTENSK

Structure (SMILES) | pIC50
CCOc1ccc(CC(=O)NO)cc1 [A1.006] | 5.12

Same assay, conditions: Table 2; read-out: IC50APN

Structure (SMILES) | pIC50
C/C(=N/O)c1ccc2c(c1)OCCOCCOc1cc(/C(C)=N\O)ccc1OCCOCCO2 [A2.002] | 5.07

Same assay, conditions: Table 3, starred values = ID50; read-out: ID50 APN (values marked with *)

Structure (SMILES) | pIC50
Cc1ccc(Cn2c(SCCC(=O)O)nc3c2c(=O)[nH]c(=O)n3C)cc1 [A3.267] | 4.27
O=C(CNC(=O)c1ccccc1O)N/N=C/c1ccco1 [A3.318] | 4.01

Same assay, conditions: Table 3, unstarred values; read-out: IC50APN

Structure (SMILES) | pIC50
CC1=C(C#N)C(=O)N(CCO)C(=O)/C1=C\c1ccc(-c2ccc(C)c(Cl)c2)o1 [A3.322] | 3.90
O=C(N/N=C/c1ccco1)c1cccc(NC(=O)c2ccccc2)c1 [A3.182] | 4.53
COc1ccc(C[C@@H](N)C(=O)N[C@@H]2[C@H](O)[C@H](n3cnc4c(N(C)C)ncnc43)O[C@@H]2CO)cc1 [A3.114] | 4.68
Cc1ccc(/C=C/C(=O)Nc2ccccc2C(N)=O)o1 [A3.245] | 4.35
O=C(N/N=C/c1cc(Br)ccc1OC(=O)c1ccc([N+](=O)[O-])cc1)/C(=C\c1ccc2c(c1)OCO2)NC(=O)c1ccccc1 [A3.271] | 4.27
CCCOC(=O)c1cc(-c2ccc(/C=C3\C(=O)N(CCO)C(=O)C(C#N)=C3C)o2)ccc1Cl [A3.270] | 4.27
O=C1C(Cc2ccc(O)cc2)NC(=S)N1c1ccccc1 (stereo not drawn) [A3.292] | 4.18
O=C(Cn1cnc2ccccc21)N/N=C/c1ccco1 [A3.238] | 4.36
Cc1nn(-c2ccccc2)c(C)c1-c1cc(C(=O)N/N=C/c2ccco2)[nH]n1 [A3.167] | 4.56
CC(=O)n1cc(/C=C/C=N/NC(=O)CC#N)c2ccccc21 [A3.214] | 4.45
Cc1cccc(C(=O)Nc2cccc(C(=O)N/N=C/c3ccc(C)o3)c2)c1 [A3.216b] | 4.44
COc1ccccc1NC(=O)/C=C\c1ccco1 [A3.276] | 4.25
O=C(N/N=C\c1ccco1)c1cnccn1 [A3.185] | 4.52
Cc1ccccc1C(=O)Nc1ccc(C(=O)N/N=C/c2ccco2)cc1 [A3.246] | 4.34
CCn1c(/C=C/c2ccco2)nc2ccccc21 [A3.250] | 4.33
O=C(COc1ccc2ccccc2c1)N/N=C/c1ccco1 [A3.062] | 4.86
COC(=O)N/N=C(C)\C=C\c1ccco1 [A3.059] | 4.87
CCOc1cc(/C=N/NC(=O)CNC(=O)c2cccc(Cl)c2)ccc1OC(=O)c1cccs1 [A3.051] | 4.91
Cc1ccc(/C=N/NC(=O)c2cccc(I)c2)o1 [A3.184] | 4.52
COc1ccc(C2NCCS2)cc1Br (stereo not drawn) [A3.215] | 4.45
COc1ccc(/C(C)=N/NC(=O)CNC(=O)/C=C\c2ccco2)cc1 [A3.181] | 4.53
Cc1ccc(/C=N/NC2=NC(=O)CS2)o1 [A3.159] | 4.65
COc1ccc(C2NCCS2)cc1Br (stereo not drawn) [A3.078] | 4.79
Cc1cccc(C)c1NC(=S)NC(=O)c1cccs1 [A3.055] | 4.89
COC(=O)c1cccc(-c2ccc(/C=C3\C(=O)N(CCO)C(=O)C(C#N)=C3C)o2)c1 [A3.023] | 5.20
COC(=O)C1=C(C(=O)OC)C(c2cc(Br)ccc2O)c2sc(O)nc2S1 (stereo not drawn) [A3.015] | 5.33
CC(C)c1cc(C(=O)N/N=C/c2ccco2)[nH]n1 [A3.080] | 4.78
C=CCN1C(=O)C(C#N)=C(C)/C(=C\c2ccc(-c3cc(C)c(C)cc3[N+](=O)[O-])o2)C1=O [A3.180] | 4.53
CC(C)Oc1ccc(Br)cc1C(=O)N/N=C/c1ccco1 [A3.248] | 4.33

Same assay, conditions: Table 4, starred values = ID50; read-out: ID50 APN (values marked with *)

Structure (SMILES) | pIC50
Cn1cccc1CC(=O)N/N=C\c1ccco1 [A4.174] | 3.95
Cc1cccc(C(=O)Nc2ccc(C(=O)N/N=C/c3ccc4c(c3)OCO4)cc2)c1 [A4.105] | 4.47
Cc1cccc(C(=O)Nc2ccc(C(=O)N/N=C/c3ccco3)cc2)c1 [A4.158] | 4.17

Same assay, conditions: Table 4, unstarred values; read-out: IC50APN

Structure (SMILES) | pIC50
O=C(COc1ccc2ccccc2c1Br)N/N=C/c1ccco1 [A4.137] | 4.33
COc1ccc(N(C(C)C(=O)N/N=C/c2ccco2)S(C)(=O)=O)cc1 (stereo not drawn) [A4.136] | 4.33
Cc1ccc(/C=N/NC(=O)c2cc(C)oc2C)o1 [A4.142] | 4.30
COc1ccc2ccccc2c1-c1cc(C(=O)N/N=C(\C)c2ccco2)[nH]n1 [A4.121] | 4.42
O=C(N/N=C\c1ccco1)c1ccc(S(=O)(=O)N2CCCCCC2)cc1 [A4.013] | 5.10
Cc1ccccc1C(=O)Nc1ccc(C(=O)N/N=C/c2ccco2)cc1 [A4.133] | 4.34
C/C(=N\NC(=O)CNC(=O)/C=C/c1ccco1)c1ccc2ccccc2c1 [A4.019] | 4.92
CCc1ccc(OCC(=O)N/N=C\c2ccco2)c([N+](=O)[O-])c1 [A4.077] | 4.60
CCN(CC)c1ccc(/C=N/NC(=O)CNC(=O)/C=C/c2ccco2)cc1 [A4.066] | 4.64
O=C(COc1cccc2ccccc12)N/N=C/c1ccco1 [A4.023] | 4.89
CC(=O)Nc1ccc(C(=O)N/N=C/c2ccc(C)o2)cc1 [A4.095] | 4.53
Cc1ccc(/C=N/NC(=O)COc2ccccc2C)o1 [A4.061] | 4.65
O=C(N/N=C/c1cc([N+](=O)[O-])ccc1O)c1ccc(Cl)cc1 [A4.078] | 4.59
CC(C)Oc1ccc(Br)cc1C(=O)N/N=C/c1ccco1 [A4.134] | 4.33
O=C(Nc1ccccc1C(=O)N/N=C/c1ccco1)c1ccc(Cl)cc1Cl [A4.046] | 4.73
N/C(=N\N=C\c1ccco1)c1nonc1N [A4.032] | 4.84
O=C(CCCOc1ccc(Cl)cc1Cl)N/N=C/c1ccco1 [A4.081] | 4.58
Cc1ccc(/C=N/NC(=O)c2cccc(I)c2)o1 [A4.096] | 4.52
Cc1ccc(/C=N/NC(=O)c2cccc(CC(=O)c3ccccc3C)c2)o1 [A4.047] | 4.72
COc1cc(Br)ccc1OCC(=O)N/N=C/c1cc(Br)c(O)c(O)c1Br [A4.056] | 4.69
O=C(N/N=C/c1ccco1)c1ccc(O)cc1O [A4.122] | 4.42
CC1=NNC(=O)C1CCC(=O)N/N=C\C=C\c1ccco1 (stereo not drawn) [A4.068] | 4.64
Cc1cc(Br)c(OCC(=O)N/N=C/c2c(Br)cc(Br)c(O)c2Br)c(Br)c1 [A4.126] | 4.37
Nc1nonc1-n1nnc(C(=O)N/N=C/c2ccco2)c1-c1ccccc1 [A4.135] | 4.33
COc1cc(/C=N/NC(=O)c2cc(-c3ccco3)n[nH]2)cc(OC)c1OC [A4.043] | 4.77
O=C(COc1ccc2ccccc2c1)N/N=C/c1ccco1 [A4.029] | 4.86
O=C(N/N=C/c1ccco1)c1ccccc1 [A4.120] | 4.42
O=C(Cc1cccs1)N/N=C\c1ccco1 [A4.178] | 3.84

Same assay, conditions: Table 6; read-out: IC50APN

Structure (SMILES) | pIC50
NNC(=O)c1ccc(NS(=O)(=O)c2cccs2)cc1 [A6.004] | 4.93
Cc1ccc(S(=O)(=O)N(Cc2ccc(Cl)cc2)c2ccccc2C(=O)N/N=C/c2ccco2)cc1 [A6.008] | 4.79

Same assay, conditions: Table 7; read-out: IC50APN

Structure (SMILES) | pIC50
CN/C=C1\C=C(c2ccccc2)OC1=S [A7.001] | 5.22

Same assay, conditions: Table 8, unstarred values; read-out: IC50APN

Structure (SMILES) | pIC50
CCOC(=O)CCCCC(=O)c1c(C)n(C(=O)c2ccc(N3C(=O)CCC3=O)cc2)c(=O)n1C(=O)c1ccc(N2C(=O)CCC2=O)cc1 [A8.017] | 4.81
CSCCC1NC(=S)N(Cc2ccccc2)C1=O (stereo not drawn) [A8.012] | 4.85

Same assay, conditions: Table 9, starred values = ID50; read-out: ID50 APN (values marked with *)

Structure (SMILES) | pIC50
CC(C)N1CCN(Cc2ccccc2[N+](=O)[O-])CC1 [A9.128] | 3.60
CCCOC(=O)C(NC(=O)c1ccccc1)(N1CCOCC1)C(F)(F)F (stereo not drawn) [A9.125] | 3.73

Same assay, conditions: Table 9, unstarred values; read-out: IC50APN

Structure (SMILES) | pIC50
CN(C)CCCN1CCN(c2nc(N(C)CC(=O)O)c3ncn(Cc4ccc(C(F)(F)F)cc4)c3n2)CC1 [A9.060] | 4.64
N#Cc1cc(N2CC3CC(C2)c2cccc(=O)n2C3)c([N+](=O)[O-])cc1C#N (stereo not drawn) [A9.017] | 5.05
CC1=C(C#N)C(=O)N(CCO)C(=O)/C1=C\c1ccc(-c2ccc(C)c(Cl)c2)o1 [A9.121] | 3.90
CC1=C(C#N)C(=O)N(CCCO)C(=O)/C1=C\c1ccc(-c2cc(C)c(C)cc2[N+](=O)[O-])o1 [A9.019] | 5.01
CC1=C(C#N)C(=O)N(CCCO)C(=O)/C1=C\c1ccc(-c2ccc(Br)cc2)o1 [A9.037] | 4.80
CC1CCN(C(=O)/C(=C\c2ccco2)NC(=O)c2ccccc2)CC1 [A9.096] | 4.35
O=C(Nc1ccc(O)cc1C(=O)O)c1cccc(N2C(=O)c3cccc4c([N+](=O)[O-])ccc(c34)C2=O)c1 [A9.063] | 4.63
C=CCOC(=O)c1cc(-c2ccc(/C=C3/C(=O)N(CCCO)C(=O)C(C#N)=C3C)o2)ccc1Cl [A9.040] | 4.74
COc1ccc(/C=C2\c3ccccc3-c3ccc(C(=O)CCCCN4CCCCC4)cc32)cc1OC [A9.111] | 4.13

Same assay, conditions: Table 10; read-out: IC50APN

Structure (SMILES) | pIC50
C/C(=N/O)c1ccc2c(c1)OCCOCCOc1cc(/C(C)=N\O)ccc1OCCOCCO2 [A10.004] | 5.07

Same assay, conditions: Table 11; read-out: IC50APN

Structure (SMILES) | pIC50
O=[N+]([O-])c1ncn(CN2CCOCC2)n1 [A11.026] | 4.43
O=C(Nc1ccccc1F)c1ccc([N+](=O)[O-])o1 [A11.034] | 4.20
O=C(OCC1CCCO1)c1cc([N+](=O)[O-])cc([N+](=O)[O-])c1 (stereo not drawn) [A11.028] | 4.41
O=C(N/N=C/c1cc(Br)ccc1OC(=O)c1ccc([N+](=O)[O-])cc1)/C(=C\c1ccc2c(c1)OCO2)NC(=O)c1ccccc1 [A11.031] | 4.27

Same assay, conditions: Table 12; read-out: IC50APN

Structure (SMILES) | pIC50
CCC(C)C(NC(=O)C(N)CC(=O)OCc1ccccc1)C(=O)NC(Cc1ccccc1)C(=O)OC (stereo not drawn) [A12.016] (H-Asp(OBn)-Ile-Phe-OMe; configuration not given here) | 5.07
Cc1ccc(C(OCCC(=O)NO)c2ccc(C)cc2)cc1 [A12.029] | 4.85

Same assay, conditions: Table 13; read-out: IC50APN

Structure (SMILES) | pIC50
Cc1ccc(/C=N/NC(=O)c2cccc(Cl)c2)o1 [A13.005] | 4.98
N#C/C(=C\c1ccc(N2Cc3ccccc3C2)cc1)C(=O)NCC1CCCO1 (stereo not drawn) [A13.013] | 4.55
CC1CCc2c(sc(NC(=O)C(C(F)(F)F)C(F)(F)F)c2C#N)C1 (stereo not drawn) [A13.022] | 4.29
